# Laboratory results reported in patent publication US6596751B2, “α-substituted carboxylic acid derivatives” (Sankyo Company Limited, priority 1999, dated 2003).
# Where a name gives a salt, the structure may show the parent alone.
# Tested on: KK mice (4-5 months old) suffering from diabetes mellitus
# Experiment: Hypoglycemic activity: blood sugar lowering in diabetic KK mice fed the test compound
# Assay type: in vivo
# Conditions: 4 per group, powdered feed containing 0.01% of test compound for 3 days, plasma glucose vs control group
# Description: Blood was collected from the tail veins of KK mice (4-5 months old) suffering from diabetes mellitus, and it was subjected to an assay of the blood sugar level. The mice were divided in groups (4 mice per group) as to have equal blood sugar levels on average in each group. Powdered mouse feed (F-1, Funabashi Farm) containing 0.01% of a test compound was given the mice for 3 days. Those mice groups fed with the test compound were referred to as “drug treated group”. Further, those groups fed with powdered feed free of the test compound were referred to as “control group”. Blood was collected from the tail veins of the mice 3 days later and was subjected to a centrifuge, and the glucose concentration in the resultant plasma was assayed with a glucose analyzer (Glucoloader, A&T Company). The average blood sugar lowering rate was calculated from the following formula:
# Blood sugar lowering rate (%)=(Average blood sugar level in control group−Average blood sugar level in drug treated group)×100/Blood sugar level in control group
compound,measurement,value
"Cn1c(COc2ccc(CC(OCc3ccc(F)cc3)C(=O)O)cc2)nc2ccc(Sc3cc(C(C)(C)C)c(O)c(C(C)(C)C)c3)cc21 (centres unmarked) [Example 4, 3-[4-[6-(3,5-Di-t-butyl-4-hydroxyphenylthio)-1-methyl-1H-benzimidazol-2-ylmethoxy]phenyl]-2-(4-fluorobenzyloxy)propionic acid]",Blood sugar lowering rate (%),40.8%
"COC(=O)[C@H](Cc1ccc(OCc2nc3ccc(OC)cc3n2C)cc1)Nc1ccccc1C(=O)c1ccccc1.Cl [Example 16, N-(2-Benzoylphenyl)-4-(6-methoxy-1-methyl-1H-benzimidazol-2-ylmethoxy)phenylalanine methyl ester hydrochloride]",Blood sugar lowering rate (%),32.1%
"Cn1c(COc2ccc(CC(OCc3ccc(F)cc3)C(=O)O)cc2)nc2ccc(Oc3ccc(C45CC6CC(CC(C6)C4)C5)cc3)cc21 (centres unmarked) [Example 2, 3-[4-[6-(4-Adamantan-1-ylphenoxy)-1-methyl-1H-benzimidazol-2-ylmethoxy]phenyl]-2-(4-fluorobenzyloxy)propionic acid]",Blood sugar lowering rate (%),58.5%
"Cc1cc(Oc2ccc3nc(COc4ccc(C[C@H](Nc5ccccc5C(=O)c5ccccc5)C(=O)O)cc4)n(C)c3c2)cc(C)c1N [Example 20, 4-[6-(4Amino-3 ,5dimethylphenoxy)-1-methyl-1H-benzimidazol-2-ylmethoxy]-N-(2-benzoylphenyl)phenylalanine dihydrochloride]",Blood sugar lowering rate (%),40.0%
"CCOC(Cc1ccc(OCc2nc3ccc(OC)cc3n2C)cc1)C(=O)O.Cl (centres unmarked) [Example 9, 2-Ethoxy-3-[4-(1-methyl-6-methoxy-1H-benzimidazol-2-ylmethoxy)phenyl]propionic acid hydrochloride]",Blood sugar lowering rate (%),48.4%
